Key:
HasA = HasA (Pseudomonas aeruginosa, UniProt G3XD33); assay: Kd determination by fluorescence quenching of apo-HasAp; conditions: read-out: HasA Kd; apo-HasAp 1 μM, 20 mM sodium phosphate pH 7.4, 25 °C, one-site binding fit
Method: Wild-type, full-length HasAp was prepared from freshly transformed Escherichia coli BL21(DE3) competent cells as previously described in 4 L of M9 media. Cell pellets were resuspended and lysed with an LM-20 microfluidizer at 18,000 psi. Lysate was clarified by centrifugation and applied to a Q-Sepharose column. HasAp was eluted over a gradient from 20 to 600 mM NaCl in 20 mM Tris-HCl (pH 7.5), and desired fractions determined by SDS-PAGE were pooled. Apo-HasAp was further purified on a Butyl Sepharose Fast Flow column equilibrated with 50 mM sodium phosphate buffer with 0.7 M ammonium sulfate (pH 7.0). Holo-HasAp and other proteins eluted within 2–3 bed volumes of 50 mM sodium phosphate containing 0.5 M ammonium sulfate. Apo-HasAp was then eluted with a linear gradient of sodium phosphate buffer (50–20 mM) containing ammonium sulfate (0.5–0 M). Fractions were analyzed again by SDS-PAGE, and the apo-HasAp was pooled, concentrated (Amicon stirred cell with Ultracel 10 kDa filter), and exchanged into 20 mM sodium phosphate buffer.
Binding affinities were determined using a BioTek Synergy H1 microplate reader in a black 96-well plate. Compounds were solvated in H2O in serial dilutions (100–0.39 μM). One micromolar solution of apo-HasAp 20 mM sodium phosphate buffer (pH 7.4, 25 °C) was titrated into the ligand of interest. Emission spectra were recorded (300–500 nm) after excitation at 280 nm. The decrease in maximum emission was plotted against the ligand concentration (accounting for dilution) and fit to one-site binding using GraphPad Prism v10.

[1] = Experimental LogP by reverse-phase HPLC method; assay type: physicochemical; conditions: extrapolated log kw
Description: LogP was experimentally determined using previously published reverse-phase high-performance liquid chromatography method, and this workflow was adapted using instrumentation described in the previous LC-MS/MS analysis section ([Coutinho et al, 2023]). Briefly, analogs were eluted using isocratic flow with an increasing percentage of organic solvent from 55% to 90% in increments of 5%. The change in the log of the retention factor, log k, was plotted against the fraction of organic solvent. This allowed for extrapolation to the y-intercept, which is when the fraction of organic in the system is zero, or log kw. The same workflow was applied to known compounds with a published logP value to establish a relationship between logP and log kw. This ratio was used to calculate the experimental logP from the log kw of the test compounds. The in silico prediction of logP values was obtained using an online calculator by Molinspiration Cheminformatics (molinspiration.com).

[2] = Caco-2 permeability screening; assay type: in vitro ADME; conditions: for Papp A→B / Papp B→A / efflux ratio at 20 µM: Caco-2, 20 μM; for Papp A→B / Papp B→A: 30 and 60 min, average ± SEM; for Papp A→B: read-out: Papp apical to basolateral; for Papp B→A: read-out: Papp basolateral to apical; for Papp: Caco-2, ranked by Papp against control drugs, read-out: Permeability ranking; for efflux ratio at 20 µM: read-out: Efflux ratio B to A/A to B
Method: Caco-2 cells were received from American Type Culture Collection and certified mycoplasma free. Cells were seeded on transwell plates (CoStar, growth area 0.33 cm^2/well, polycarbonate membrane, 0.33 μm pore size) between passage 20 and 27 and then analyzed between 21 and 25 days after wells were seeded to ensure enterocyte-like differentiation. Before assessing permeability, cells were washed once with Hank’s Balanced Salt Solution buffer, pH 7.4, and then incubated at 37 °C for 30 minutes. Transepithelial electrical resistance (TEER) was measured after equilibration before the experiment using an epithelial volt-ohmmeter (EVOM, World Precision Instruments), and cells were used if TEER > 250 Ω × cm^2. Cells were dosed to measure permeability from basolateral and apical sides at a concentration of 20 μM of test compound and 50 μM of Lucifer yellow. Lucifer yellow was used as a “zero permeability” marker to monitor the integrity of cell barrier. Samples were taken at 0 and 60 minutes from the donor side, and samples were taken at 30 and 60 minutes from the receiver side; media was replenished after the 30-minute sample was taken from both chambers. A calibration curve was prepared by serial dilution using the dosing solution in a 1:5 dilution. […] Samples were prepared for LC-MS/MS analysis by taking 100 μL of sample, adding 1 μM internal standard (GaSal-4 or GaSal-5), and crashing with 400 μL of methanol. Samples were centrifuged at 3000 rpm at 4 °C for 30 minutes, 200 μL of supernatant was transferred to a new plate, and 100 μL of water was added to each sample. Samples were vortexed and analyzed by LC-MS/MS as described earlier. […] To preliminarily evaluate organic cation transporter 1 (OCT1) or P-glycoprotein (P-gp)-dependent transport, transport studies were conducted with and without a 1 μM “inhibitor cocktail” alongside GaSal. […] The Papp for basolateral to apical, Papp apical to basolateral, and efflux ratio were reported for each compound. In order to calculate Papp, the concentration in the sampled time point was determined from the calibration curve and then converted to μg based on the volume of the chamber (0.2 mL for apical, 1.0 mL for basolateral). […] The calculation of Papp was determined using eq. […] Data are presented as the average ± SEM for each compound analyzed as n = 3 on 2 different days with 2 different cell line passages, for n = 6 total. GaSal is n = 3 on 3 different cell line passages since this was used as a test compound for the inhibition cocktail experiments.

[3] = RBC/PL partitioning equilibrium in whole blood; conditions: for K2EDTA KRBC/PL: pooled K2EDTA whole blood; for K2EDTA KRBC/PL / Heparin KRBC/PL: LC-MS/MS (ICP-MS for Ga^3+); for Heparin KRBC/PL: pooled sodium heparin whole blood
Method: The mixtures were digested at 80 °C for 4 hours and further diluted to a concentration of 6% nitric acid. Gallium (Ga^71) in whole blood, PL, and RBC samples were quantified using an Agilent 7700x ICP-MS instrument (Agilent Technologies). Metal levels were detected using an Octopole Reaction System in He mode. Other ICP-MS parameters include an radio frequency power of 1500 W, on octupole radio frequency of 190 V, an octapole bias of –18 V, a helium gas flow of 4.3 mL/min, and an argon flow of 0.99 L/min. Samples were loaded through a 7700X peristaltic (with a speed of 0.1 rps) and a MicroMist nebulizer. A standard calibration curve was used to derive metal concentrations. The calibration standards from 0–250 ppb were prepared in 6% nitric acid using atomic absorption standards (Sigma). Data analysis and extraction were performed using Agilent’s MassHunter software version 5.1, specifically version D.01.01.
All LC-MS/MS grade solvents were purchased from ThermoFisher. Ammonium bicarbonate was purchased from Sigma Aldrich. Analysis was performed on a Waters I-Class ultra-performance liquid chromatography system connected with a Waters Xevo TQ-XS mass spectrometer. Ten millimolar ammonium bicarbonate, pH 9.4 was used for mobile phase A, and 100% methanol was used for mobile phase B. The column flow rate was set at 0.400 mL/min. Chromatographic separation was performed with a BEH C18 (2.1 × 50 mm, 1.7 μm) column (Waters). […] The total run time was 4 minutes. The column temperature was set to 60 °C, and the autosampler temperature was set to 15 °C. Washing parameters were 800 μL of weak needle wash (acetonitrile [ACN]:Water/50:50) and 1000 μL of strong needle wash (methanol:ACN:2-propanol:formic acid/30:30:40:0.5) after every injection. Transitions used to monitor all drugs in the study are shown in Supplemental Table 1.
Whole blood (either potassium EDTA [K2EDTA] or sodium heparin) was preincubated at 37 °C for 30 minutes before spiking with the analyte. GaSal-5 was made at a stock concentration of 100 μg/mL in water and then spiked at a high concentration (1 μg/mL) and low concentration (100 ng/mL) to determine whether equilibrium was concentration dependent. Samples were then aliquoted and stored in a water bath at 37 °C for 1, 2, 3, 4, and 8 hours or harvested immediately. PL was harvested from samples by centrifuging at 3000 rpm at 4 °C for 10 minutes. PL was transferred to a new tube and considered the PL fraction, whereas the rest of the matrix was considered the RBC fraction. Samples were then either analyzed by LC-MS/MS or ICP-MS. […] For selectivity lot analysis, whole blood from 3 male and 3 female donors were incubated for 2 hours and then analyzed with LC-MS/MS and ICP-MS at a single concentration of 1 μg/mL. Data are presented as average ± SEM, n = 3 per sample, per concentration. Significance was determined by using a paired t test for ICP-MS and LC-MS/MS data (the same sample, different method) or a 2-tailed Student’s t test for different anticoagulants.

[4] = calculated B/P; ref (Cao et al., 2023); cited from earlier work

Chain of HasA (G3XD33 entry or part of it): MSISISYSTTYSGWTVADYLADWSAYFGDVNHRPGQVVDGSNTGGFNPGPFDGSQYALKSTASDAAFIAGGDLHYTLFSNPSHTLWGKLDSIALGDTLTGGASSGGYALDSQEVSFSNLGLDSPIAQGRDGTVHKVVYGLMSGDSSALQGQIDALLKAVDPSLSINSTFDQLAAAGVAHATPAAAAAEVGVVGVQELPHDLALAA

| Structure (SMILES) | Kd (HasA) [µM] | logP [1] | Papp A→B [2] [×10⁻⁶ cm/s] | Papp B→A [2] [×10⁻⁶ cm/s] | Papp [2] [×10⁻⁶ cm/s] | K2EDTA KRBC/PL ([3]; 0.1 μg/mL, 2 hours) | Heparin KRBC/PL ([3]; 0.1 μg/mL, 2 hours) | K2EDTA KRBC/PL ([3]; 1 μg/mL, 2 hours) | Heparin KRBC/PL ([3]; 1 μg/mL, 2 hours) | KRBC/PL (B/P ratio) [4] | other results |
| --- | --- | --- | --- | --- | --- | --- | --- | --- | --- | --- | --- |
| CCCCOc1ccc(/C=N/c2ccccc2/N=C/c2ccc(OCCCC)cc2O)c(O)c1.[Ga+3] [GaSal-15] | 1.98 ± 0.17 | 5.99 | 0.79 ± 0.06 | 7.1 ± 1.13 | < 1.12 | 5.40 ± 0.13 | 0.83 ± 0.01 | 3.81 ± 0.97 | 1.24 ± 0.03 | – | efflux ratio at 20 µM ([2]; human): 9.02 |
| [Pb] [Lead] | – | – | – | – | – | – | – | – | – | 1.13 | – |
| [Ni] [Nickel] | – | – | – | – | – | – | – | – | – | 0.50 | – |
| [Se] [Selenium] | – | – | – | – | – | – | – | – | – | 1.34 | – |
| O=[N+]([O-])[O-].O=[N+]([O-])[O-].O=[N+]([O-])[O-].[Ga+3] [Ga^3+, gallium nitrate, reference compound] | – | – | – | – | – | – | – | – | – | – | hemolysis [3]: > 5%; ICP-MS calculated KRBC/PL ([3]; 1 μg/mL, sodium heparin whole blood, 6 selectivity lots, 2 hours): 0.08 ± 0.01 |
| OCCCOc1ccc(/C=N/c2ccccc2/N=C/c2ccc(OCCCO)cc2O)c(O)c1.[Ga+3] [GaSal-11] | 0.57 ± 0.03 | 4.04 | < 0.01 | 0.72 ± 0.12 | < 1.12 | 0.05 ± 0.03 | 0.91 ± 0.19 | 0.05 ± 0.02 | 1.15 ± 0.19 | – | – |
| CC(=Nc1ccccc1/N=C/c1ccc(OCCCO)cc1O)c1ccccc1O.[Ga+3] [GaSal-12] | 0.52 ± 0.01 | 3.19 | 0.05 ± 0.01 | 0.17 ± 0.06 | < 1.12 | 0.11 ± 0.06 | 0.86 ± 0.31 | 0.13 ± 0.04 | 1.48 ± 0.10 | – | efflux ratio at 20 µM ([2]; human): 3.4 |
| [Cd] [Cadmium] | – | – | – | – | – | – | – | – | – | 4.28 | – |
| [Sr+2] [Strontium] | – | – | – | – | – | – | – | – | – | 0.42 | – |
| CN(C)C(=O)C(CCN1CCC(O)(c2ccc(Cl)cc2)CC1)(c1ccccc1)c1ccccc1 [Loperamide, reference compound] | – | – | – | – | – | – | – | – | – | – | efflux ratio at 60 min, 20 μM ([2]; human, Caco-2, pH 7.4, known drug standards, read-out: Efflux Ratio B to A/ A to B): 4.22; Papp A→B at 60 min, 20 μM ([2]; human, Caco-2, pH 7.4, known drug standards, read-out: Papp Apical to Basolateral): 3.51 ± 0.04 ×10⁻⁶ cm/s; Papp B→A at 60 min, 20 μM ([2]; human, Caco-2, pH 7.4, known drug standards, read-out: Papp Basolateral to Apical): 14.8 ± 2.12 ×10⁻⁶ cm/s; Papp at 60 min, 20 μM ([2]; human, Caco-2, pH 7.4, known drug standards, read-out: Permeability Ranking): 3.51 to 5.33 ×10⁻⁶ cm/s |
